Here are results for 50 substances from patent US10517889B2, “Modulators of SMAD7 expression” (Ionis Pharmaceuticals, Inc., priority 2017, dated 2019).

Strand notation (5' to 3'): a small letter for the sugar, then the base; units joined by * are phosphorothioate-linked, units joined directly phosphodiester-linked; [ ] holds rarer units or linkages, { } end groups; capitals alone tell only the bases. k = constrained ethyl (cEt); [5mC] = 5-methylcytosine; d = 2'-deoxy (DNA)

The subject of the first data set is human SMAD7 mRNA. The experiment in a line: Antisense inhibition of human SMAD7 mRNA expression in Hep3B cells by 3-10-3 cEt gapmers, 10,000 nM, electroporation (Example 2). Format: cell-based. The following applies: Hep3B cells, 10,000 nM antisense oligonucleotide, electroporation, approximately 24 hours, RT-PCR primer probe set RTS5062, relative to untreated control cells. The method, boiled down:
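Hep3B cells (20,000 per well) were electroporated with 10,000 nM 16-mer 3-10-3 cEt gapmer (phosphorothioate, 5-methylcytosine). After about 24 h, SMAD7 mRNA was quantified by qRT-PCR with primer probe set RTS5062, normalised to RIBOGREEN total RNA, and expressed as percent inhibition versus untreated cells.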
Consider “800089 (antisense kA*kG*kG*dA*dA*d[5mC]*d[5mC]*dT*dA*dT*d[5mC]*dT*dG*kG*kT*kA) [compound 800089]”, for which the “% Inhibition” value was 0%.

Turning to “800090 (antisense k[5mC]*kA*k[5mC]*d[5mC]*dT*dA*dT*dG*d[5mC]*dG*dA*dT*dG*kG*kT*k[5mC]) [compound 800090]”, the “% Inhibition” value is reported as 0%.

As to “800091 (antisense kT*kG*kA*d[5mC]*dA*d[5mC]*dA*dG*d[5mC]*d[5mC]*dA*dG*dA*kG*k[5mC]*kT) [compound 800091]”, the “% Inhibition” value stood at 0%.

As for “800092 (antisense kA*kT*k[5mC]*d[5mC]*dT*dG*dA*dT*dG*dA*dG*dA*dA*kA*kA*k[5mC]) [compound 800092]”, the “% Inhibition” value was 0%.

“800093 (antisense kT*kT*kG*dA*dA*dG*dG*d[5mC]*d[5mC]*dA*dG*d[5mC]*dT*k[5mC]*k[5mC]*kT) [compound 800093]”: the “% Inhibition” value came out at 48%.

On to “800094 (antisense kA*kT*kG*dG*dA*dA*d[5mC]*d[5mC]*dT*dT*dG*dA*dA*kG*kG*k[5mC]) [compound 800094]”, for which the “% Inhibition” value was 49%.

With “800095 (antisense kA*kG*kT*dT*dA*d[5mC]*dA*dG*dA*dT*d[5mC]*dT*dT*kT*k[5mC]*kA) [compound 800095]”, the “% Inhibition” value is given as 47%.

“800096 (antisense kT*kG*kG*dA*dG*dT*dT*dA*d[5mC]*dA*dG*dA*dT*k[5mC]*kT*kT) [compound 800096]”: the “% Inhibition” value came to 32%.

Regarding “800097 (antisense kG*k[5mC]*k[5mC]*dT*d[5mC]*dA*dA*dA*dA*dA*dG*d[5mC]*d[5mC]*kT*k[5mC]*kA) [compound 800097]”, the “% Inhibition” value amounted to 1%.

As to “800098 (antisense kT*kT*kT*dT*dA*dG*dG*dG*d[5mC]*d[5mC]*dT*d[5mC]*dA*kA*kA*kA) [compound 800098]”, the “% Inhibition” value came to 1%.

The data set is the same for the next values; noted with them: Hep3B cells, electroporation with 10,000 nM antisense oligonucleotide, approximately 24 hours, SMAD7 mRNA by RT-PCR (RTS5062), relative to untreated control cells.
As to “800081 (antisense k[5mC]*kG*kG*dT*dA*dT*dT*dA*dA*d[5mC]*d[5mC]*d[5mC]*dG*kG*kG*k[5mC]) [compound 800081]”, the “% Inhibition” value was 0%.

Turning to “800082 (antisense kG*k[5mC]*kA*dG*dA*d[5mC]*d[5mC]*dG*dG*dT*dA*dT*dT*kA*kA*k[5mC]) [compound 800082]”, the “% Inhibition” value is reported as 12%.

As to “800083 (antisense kT*kG*k[5mC]*dA*dG*dA*d[5mC]*d[5mC]*dG*dG*dT*dA*dT*kT*kA*kA) [compound 800083]”, the “% Inhibition” value was 11%.

Take “800084 (antisense kG*k[5mC]*k[5mC]*dA*dA*dA*dT*d[5mC]*dA*d[5mC]*dA*dA*d[5mC]*kA*kT*kG) [compound 800084]”: the “% Inhibition” value was found to be 57%.

Regarding “800085 (antisense kA*kG*k[5mC]*dA*dG*d[5mC]*d[5mC]*d[5mC]*dT*dG*dT*dA*d[5mC]*kA*k[5mC]*kA) [compound 800085]”, the “% Inhibition” value is on record as 37%.

For “800086 (antisense kA*kG*k[5mC]*dA*dG*d[5mC]*dA*dG*d[5mC]*d[5mC]*d[5mC]*dT*dG*kT*kA*k[5mC]) [compound 800086]”, the “% Inhibition” value turned out to be 40%.

In the case of “800087 (antisense kT*kA*kA*dT*dA*dG*dG*dA*dA*dA*dA*d[5mC]*dA*kG*kT*k[5mC]) [compound 800087]”, the “% Inhibition” value stood at 0%.

As for “800088 (antisense kA*kA*kT*dG*dA*dG*dG*dG*dT*dG*dG*d[5mC]*dT*kT*kG*kG) [compound 800088]”, the “% Inhibition” value was found to be 54%.

“800099 (antisense kT*kG*k[5mC]*dA*dA*dA*dG*dG*dG*dA*d[5mC]*d[5mC]*d[5mC]*kT*kT*kA) [compound 800099]”: the “% Inhibition” value is 6%.

Consider “800100 (antisense kT*kG*k[5mC]*dA*dG*dA*dG*d[5mC]*dA*d[5mC]*dA*dG*dA*kT*kG*k[5mC]) [compound 800100]”, for which the “% Inhibition” value is 16%.

On to “800101 (antisense kA*kA*k[5mC]*dA*dA*dA*dG*d[5mC]*d[5mC]*dT*d[5mC]*dT*dT*k[5mC]*kT*k[5mC]) [compound 800101]”, for which the “% Inhibition” value is 0%.

On to “800102 (antisense kA*k[5mC]*kG*dA*dG*dA*d[5mC]*dA*dG*dA*dA*dA*dG*kA*kA*kG) [compound 800102]”, for which the “% Inhibition” value amounted to 21%.

For “800103 (antisense kG*kG*kA*d[5mC]*dG*dA*dG*dA*d[5mC]*dA*dG*dA*dA*kA*kG*kA) [compound 800103]”, the “% Inhibition” value is listed as 4%.

For “800104 (antisense kA*kG*kG*dA*d[5mC]*dG*dA*dG*dA*d[5mC]*dA*dG*dA*kA*kA*kG) [compound 800104]”, the “% Inhibition” value is reported as 17%.

“800105 (antisense kT*k[5mC]*k[5mC]*dT*dA*dG*dA*dA*dT*dG*dA*dA*dG*kA*k[5mC]*kA) [compound 800105]”: the “% Inhibition” value turned out to be 17%.

As for “800106 (antisense k[5mC]*kA*kG*dA*dG*dA*dG*dG*dG*dT*dT*dA*dG*kT*kG*kG) [compound 800106]”, the “% Inhibition” value stood at 12%.

On to “800107 (antisense kA*kA*kT*d[5mC]*dT*dA*dG*dA*dA*dA*dA*d[5mC]*dA*k[5mC]*kA*kT) [compound 800107]”, for which the “% Inhibition” value turned out to be 0%.

Regarding “800108 (antisense kG*kG*kA*dA*dT*d[5mC]*dT*dA*dG*dA*dA*dA*dA*k[5mC]*kA*k[5mC]) [compound 800108]”, the “% Inhibition” value came to 12%.

The same data set, now with this note: SMAD7 mRNA, Hep3B cells, 10,000 nM antisense oligonucleotide, electroporation, approximately 24 hours, primer probe set RTS5062, relative to untreated control cells.
For “800768 (antisense kG*k[5mC]*kG*d[5mC]*dT*d[5mC]*d[5mC]*dG*dT*dG*dG*d[5mC]*dA*kT*kG*k[5mC]) [compound 800768]”, the “% Inhibition” value is listed as 18%.

In the case of “800769 (antisense kG*k[5mC]*kA*dG*dG*d[5mC]*dG*dA*d[5mC]*dA*dG*d[5mC]*dA*kG*k[5mC]*kA) [compound 800769]”, the “% Inhibition” value was 49%.

For the substance “800771 (antisense k[5mC]*k[5mC]*k[5mC]*dG*d[5mC]*dA*dG*d[5mC]*dT*d[5mC]*dG*d[5mC]*d[5mC]*kT*k[5mC]*k[5mC]) [compound 800771]”, the “% Inhibition” value turned out to be 46%.

With “800776 (antisense kG*kA*kG*dG*d[5mC]*dA*d[5mC]*dG*d[5mC]*dG*dG*dT*dG*k[5mC]*kG*k[5mC]) [compound 800776]”, the “% Inhibition” value is 36%.

For the substance “800786 (antisense kG*k[5mC]*kA*d[5mC]*d[5mC]*dA*dG*dT*dG*dT*dG*dA*d[5mC]*k[5mC]*kG*kA) [compound 800786]”, the “% Inhibition” value came to 0%.

With “800787 (antisense k[5mC]*kA*kG*dT*dA*dG*dA*dG*d[5mC]*d[5mC]*dT*d[5mC]*d[5mC]*k[5mC]*k[5mC]*kA) [compound 800787]”, the “% Inhibition” value is listed as 38%.

As for “800793 (antisense kT*kG*kA*d[5mC]*dT*d[5mC]*dT*dT*dG*dT*dT*dG*dT*k[5mC]*k[5mC]*kG) [compound 800793]”, the “% Inhibition” value was 53%.

Turning to “800795 (antisense kT*kA*kA*d[5mC]*dT*dG*d[5mC]*dT*dG*d[5mC]*dG*dG*dT*kT*kG*kT) [compound 800795]”, the “% Inhibition” value was found to be 12%.

In the case of “800798 (antisense k[5mC]*k[5mC]*kT*dG*dG*dA*dG*dT*d[5mC]*d[5mC]*dG*dG*dG*kT*kT*kG) [compound 800798]”, the “% Inhibition” value is 36%.

For the substance “800837 (antisense kA*kA*kA*d[5mC]*d[5mC]*dT*dT*dT*dG*dT*dA*dG*dT*kT*kA*kG) [compound 800837]”, the “% Inhibition” value is reported as 41%.

Consider “800843 (antisense kT*k[5mC]*kG*dG*d[5mC]*d[5mC]*dA*d[5mC]*dA*d[5mC]*dA*d[5mC]*d[5mC]*kT*k[5mC]*kA) [compound 800843]”, for which the “% Inhibition” value is listed as 32%.

“800858 (antisense kA*kG*k[5mC]*d[5mC]*d[5mC]*dA*dA*d[5mC]*dT*dG*dT*dT*dT*kG*kT*k[5mC]) [compound 800858]”: the “% Inhibition” value turned out to be 40%.

With “800861 (antisense k[5mC]*k[5mC]*kA*dG*dT*dT*dG*dG*dT*dT*dT*dG*dA*kG*kA*kA) [compound 800861]”, the “% Inhibition” value was determined as 32%.

In the case of “800883 (antisense kA*k[5mC]*k[5mC]*dA*dT*dT*dT*dA*dT*d[5mC]*dT*dG*dG*kT*kG*kT) [compound 800883]”, the “% Inhibition” value was determined as 50%.

As for “800998 (antisense k[5mC]*k[5mC]*k[5mC]*dG*d[5mC]*dT*d[5mC]*dT*d[5mC]*dA*dG*d[5mC]*d[5mC]*kA*kG*kG) [compound 800998]”, the “% Inhibition” value stood at 39%.

On to “800999 (antisense k[5mC]*kA*kT*dT*d[5mC]*dA*dT*dT*dA*dA*dG*d[5mC]*d[5mC]*k[5mC]*kG*k[5mC]) [compound 800999]”, for which the “% Inhibition” value was 54%.

As to “801003 (antisense kG*kA*kA*dT*d[5mC]*dA*dA*dG*d[5mC]*d[5mC]*d[5mC]*dT*dG*kG*k[5mC]*kT) [compound 801003]”, the “% Inhibition” value came out at 38%.

“801128 (antisense kA*kG*kT*dA*dT*d[5mC]*d[5mC]*dA*dT*d[5mC]*dA*dA*d[5mC]*kT*kG*k[5mC]) [compound 801128]”: the “% Inhibition” value was 48%.

As to “801132 (antisense kG*kG*kT*dG*dA*d[5mC]*dT*d[5mC]*dA*dT*d[5mC]*dA*dG*kG*k[5mC]*kA) [compound 801132]”, the “% Inhibition” value was 55%.

“801138 (antisense kG*kT*kT*dA*dG*dG*dA*d[5mC]*d[5mC]*dT*dG*dG*dG*kA*kA*k[5mC]) [compound 801138]”: the “% Inhibition” value is reported as 6%.

For “801145 (antisense kA*k[5mC]*kG*d[5mC]*dT*dG*dT*dG*dG*dT*dT*dT*dG*kT*kG*kG) [compound 801145]”, the “% Inhibition” value stood at 0%.

“829715 (antisense kT*k[5mC]*kT*d[5mC]*d[5mC]*d[5mC]*dG*dG*dA*dG*dG*d[5mC]*d[5mC]*kG*kG*kG) [compound 829715]”: the “% Inhibition” value was 40%.

For orientation: % Inhibition means the drop in the measured response relative to a control, in per cent. Higher therefore signals a response far below the control.
